According to patent US3955959A, “Herbicide for use in transplanted rice” (priority 1974, dated 1976):
Converted amounts (≈) assume the structure as drawn. “And” between values parts separate entries of the source, which are not always exact repeats. Identical values can stand only once.

How the values were obtained:
[1] = test system: transplanted rice (ordinary and infant seedlings); assay: Example 5 field test, rice yield; format: in vivo; conditions: in vivo
Method: (§1) In the tests described in the tables below, the herbicides were formulated and used in granular form in conventional manner. […] The commercial herbicide used was a granular product having 5% active ingredient.
(§2) In the field tests of the herbicide of this invention with transplanted rice, the rice seedlings were grown in conventional manner, by seeding the rice in a typical seedbed of sandy loam to clay soil of the country wherein the test was conducted. For laboratory and greenhouse work the seedlings were obtained by seeding rice in a mixture of soil, e.g., Ray silt loam, and peat in wood flats. For purposes of testing the herbicides on younger rice seedlings (infant or Dapog) the rice was usually allowed to grow for 6-15 days before lifting for transplanting. Older (ordinary) rice plants were usually grown for a period of about 2-3 weeks, or as much as about 7 weeks before lifting. Since the period of growth is dependent upon climatic conditions, a better measure of when to transplant the rice seedling is the leaf stage of growth; for infant or Dapog rice the seedling is lifted at the 1.5-2 leaf stage of growth, and for ordinary seedlings at the 2.5-5 leaf stage. The seedlings were then transplanted to the test plots for evaluation of the herbicide for injury against weed species present with the transplanted rice. The herbicides were then applied to the growth medium of the weeds and transplant rice, either preemergent or postemergent with respect to the weeds and postemergent with respect to the transplanted rice. Application times are designated in the tables as "DAT", meaning "days after transplant". Application rates given in the tables refer to the amount of active ingredient used.
The rice seedlings were grown to the 1.7 leaf stage for infant seedlings and to the 5.5 leaf stage for ordinary seedlings. Two days after puddling the soil in which the seedlings were to be transplanted, both infant and ordinary seedlings were transplanted into plots 8.5 m^2.
The weed symbol "Obw" represents "other broadleaf weeds" of unspecified identity. Results presented in Table 5 represent the average of 2 replications.

Dapog transplanted rice = assay: Example 3 field test, crop injury; conditions: for Crop Injury (%): obs. 42 DAT
Method: as §1, §2
Eleven (11) day-old Dapog seedlings were transplanted and treated at 5 DAT and 14 DAT with Herbicides A and B. The plots were overseeded with Echinochloa crusgalli seeds at 2 kgs/ha prior to transplanting. Treatments were replicated four times.

[2] = test system: Ea (Eleocharis acicularis); assay: Example 5 field test, weed control, JAAPR, Japan; format: in vivo
[3] = Example 10 fish toxicity, Japanese protocol; format: in vivo, carp; conditions: carp, in vivo, read-out: Medium Lethal Concentration
Method: In view of the importance of fish toxicological considerations, tests were conducted, using carp according to the Japanese protocol, to compare toxicity data for Herbicides A and B; results of those tests are shown in Table 10.

[4] = test system: Broadleaf: Mv, Sz (Monochoria vaginalis, Sphenoclea zeylanica); assay: Example 4 field test on ordinary rice, weed control, Munoz, Philippines; format: in vivo, Monochoria vaginalis and Sphenoclea zeylanica; conditions: obs. 36 DAT
Description: Treatments were replicated four times.

[5] = test system: weeds in transplanted rice; assay: Field tests / general herbicidal activity in transplanted rice; format: in vivo
[6] = test system: Ec (Echinochloa crusgalli); assay: Example 5 field test, weed control, JAAPR, Japan; format: in vivo
[7] = test system: Mv (Monochoria vaginalis); assay: Example 5 field test, weed control, JAAPR, Japan; format: in vivo
Ce (Cyperus esculentus) = assay: Example 7 greenhouse preemergence activity; format: in vivo
Method: In a further comparative study of the preemergence activity of Herbicides A and B, a variety of weeds and upland direct-seeded rice were tested under greenhouse conditions. The present invention is not concerned with the use of Herbicide A in direct-seeded rice. The primary purpose of the experimental work in this example is to compare relative herbicidal activity of Herbicides A and B against the weeds shown in Table 7; most of these weeds were not available for tests with transplanted rice. Although the relative selectivity of these herbicides in upland rice is also evident, that aspect of the tests is more or less incidental to the purpose of this example.
In this example, rice seeds and seeds of the weeds shown in Table 7 were sown in Ray silt loam soil at a depth of 0.5 inch (1.27 cm) in containers for the soil in a greenhouse. Herbicides A and B were applied to the surface of the soil at a spray volume equivalent to 20 gals/acre (187.1 liters/hectare), followed by 0.5 in (1.27 cm) of overhead irrigation. Temperature and relative humidity in the greenhouse were on the order of 85°F (29°C) and 75%, respectively. Observations were made at 21-28 days after seeding.
In Table 7 are shown the average rates of herbicide required to cause a growth reduction of 85% of the weeds ("GR85 "), and the average rate of herbicide required to cause a growth reduction of 15% ("GR15 ") of the rice plants (Oryza sativa, "Os", variety Bluebelle).

transplanted rice = assay: Example 2 field test, crop injury; conditions: obs. 63 DAT
Method: as §1, §2
Rice seedlings (ordinary) of Tainan No. 5 variety (japonica) were transplanted at 19 days of growth. Granular formulations of Herbicides A and B were applied at the 1 leaf stage of grass weed (4 DAT) and 2.5 leaf stage of grass weed (10 DAT). Observations were made at 63 DAT and results reported in Table 2 as an average of 3 replications.

[8] = test system: Obw (other broadleaf weeds); assay: Example 5 field test, weed control, JAAPR, Japan; format: in vivo
[9] = 1.0 kg/ha, 15 DAT, infant seedlings
[10] = 1.0 kg/ha, 15 DAT, ordinary seedlings
[11] = .25 kg/ha, 2 DAT, infant seedlings
[12] = .25 kg/ha, 2 DAT, ordinary seedlings
[13] = .5 kg/ha, 7 DAT, infant seedlings
[14] = .5 kg/ha, 7 DAT, ordinary seedlings

CCCCOCN(C(=O)CCl)c1c(C)cccc1C(C)(C)C [Herbicide A, n-(butoxymethyl)-6'-tert-butyl-2-chloro-o-acetotoluidide]
Yield % of H.W.C. [1]: 97% and 95% and 96% and 98% and 99% and 102% | yields vs Herbicide B at 1.5 kg/ha 7 DAT [1]: essentially the same | Crop Injury (%) (Dapog transplanted rice; 5 DAT, 1.0 kg/ha): 40% | Crop Injury (%) (Dapog transplanted rice; 5 DAT, 2.0 kg/ha): 50% | Crop Injury (%) (Dapog transplanted rice; 5 DAT, .25 kg/ha): 0% | Crop Injury (%) (Dapog transplanted rice; 5 DAT, .5 kg/ha): 0% | Crop Injury (%) (Dapog transplanted rice; 14 DAT, 1.0 kg/ha): 0% | Crop Injury (%) (Dapog transplanted rice; 14 DAT, 2.0 kg/ha): 80% | Crop Injury (%) (Dapog transplanted rice; 14 DAT, .25 kg/ha): 0% | Crop Injury (%) (Dapog transplanted rice; 14 DAT, .5 kg/ha): 0% | rice injury in words (Dapog transplanted rice; higher rates, 5 DAT): considerable rice injury | % Weed Control (Ea) [2, 9]: 89% | % Weed Control (Ea) [2, 10]: 90% | % Weed Control (Ea) [2, 11]: 87% | % Weed Control (Ea) [2, 12]: 79% | % Weed Control (Ea) [2, 13]: 89% | % Weed Control (Ea) [2, 14]: 98% | LC50 at 48 h ([3]; 48 hours): 1.8 µg/mL (≈ 5.52 µM) | LC50 at 96 h ([3]; 96 hours): 1.4 µg/mL (≈ 4.3 µM) | % Weed control, Broadleaf (Mv,Sz) ([4]; 5 DAT, 1.0 kg/ha): 100% | % Weed control, Broadleaf (Mv,Sz) ([4]; 5 DAT, 2.0 kg/ha): 100% | % Weed control, Broadleaf (Mv,Sz) ([4]; 5 DAT, .25 kg/ha): 100% | % Weed control, Broadleaf (Mv,Sz) ([4]; 5 DAT, .5 kg/ha): 100% | % Weed control, Broadleaf (Mv,Sz) ([4]; 14 DAT, 1.0 kg/ha): 60% | % Weed control, Broadleaf (Mv,Sz) ([4]; 14 DAT, 2.0 kg/ha): 60% | % Weed control, Broadleaf (Mv,Sz) ([4]; 14 DAT, .25 kg/ha): 50% | % Weed control, Broadleaf (Mv,Sz) ([4]; 14 DAT, .5 kg/ha): 50% | latest/optimum application stage of weeds ([5]; field tests): 2-2.5 leaf stage | control of undesirable vegetation ([5]; monocotyledons and dicotyledons): fair to excellent control | herbicidal activity in transplanted rice ([5]; presence of transplanted rice): superior herbicidal activity | selectivity vs Herbicide B in transplant rice ([5]; transplant rice cultures): more selective | % Weed Control (Ec) [6, 9]: 100% | % Weed Control (Ec) [6, 10]: 100% | % Weed Control (Ec) [6, 11]: 100% | % Weed Control (Ec) [6, 12]: 100% | % Weed Control (Ec) [6, 13]: 100% | % Weed Control (Ec) [6, 14]: 100% | control of Ec in words ([6]; both plots, all rates): controlled | % Weed Control (Mv) [7, 9]: 67% | % Weed Control (Mv) [7, 10]: 62% | % Weed Control (Mv) [7, 11]: 80% | % Weed Control (Mv) [7, 12]: 80% | % Weed Control (Mv) [7, 13]: 60% | % Weed Control (Mv) [7, 14]: 62% | resistance of Ce (Ce (Cyperus esculentus)): resistant | % Crop Injury, stand (transplanted rice; 4 DAT, 1.0 kg/ha): 0% | % Crop Injury, vigor (transplanted rice; 4 DAT, 1.0 kg/ha): 0% | % Crop Injury, stand (transplanted rice; 4 DAT, 2.0 kg/ha): 5% | % Crop Injury, vigor (transplanted rice; 4 DAT, 2.0 kg/ha): 27% | % Crop Injury, stand (transplanted rice; 4 DAT, .25 kg/ha): 0% | % Crop Injury, vigor (transplanted rice; 4 DAT, .25 kg/ha): 0% | % Crop Injury, stand (transplanted rice; 4 DAT, .5 kg/ha): 0% | % Crop Injury, vigor (transplanted rice; 4 DAT, .5 kg/ha): 0% | % Crop Injury, stand (transplanted rice; 10 DAT, 1.0 kg/ha): 3% | % Crop Injury, vigor (transplanted rice; 10 DAT, 1.0 kg/ha): 7% | % Crop Injury, stand (transplanted rice; 10 DAT, 2.0 kg/ha): 15% | % Crop Injury, vigor (transplanted rice; 10 DAT, 2.0 kg/ha): 25% | % Crop Injury, stand (transplanted rice; 10 DAT, .25 kg/ha): 0% | % Crop Injury, vigor (transplanted rice; 10 DAT, .25 kg/ha): 0% | % Crop Injury, stand (transplanted rice; 10 DAT, .5 kg/ha): 0% | % Crop Injury, vigor (transplanted rice; 10 DAT, .5 kg/ha): 2% | control of Obw in words ([8]; 0.25 kg/ha both plots, 1.0 kg/ha ordinary): controlled completely | % Weed Control (Obw) [8, 9]: 96% | % Weed Control (Obw) [8, 10]: 100% | % Weed Control (Obw) [8, 11]: 100% | % Weed Control (Obw) [8, 12]: 100% | % Weed Control (Obw) [8, 13]: 83% | % Weed Control (Obw) [8, 14]: 82%
